Like-named read-outs stand apart in the source and are kept apart here.
Assays:
COX II enzyme = molecular target: T1, COX II enzyme (Mus musculus, UniProt Q05769); settings: J. Biol. Chem., 268, 6610 (1993); cited from earlier work
T1 sequence (Q05769 18-604): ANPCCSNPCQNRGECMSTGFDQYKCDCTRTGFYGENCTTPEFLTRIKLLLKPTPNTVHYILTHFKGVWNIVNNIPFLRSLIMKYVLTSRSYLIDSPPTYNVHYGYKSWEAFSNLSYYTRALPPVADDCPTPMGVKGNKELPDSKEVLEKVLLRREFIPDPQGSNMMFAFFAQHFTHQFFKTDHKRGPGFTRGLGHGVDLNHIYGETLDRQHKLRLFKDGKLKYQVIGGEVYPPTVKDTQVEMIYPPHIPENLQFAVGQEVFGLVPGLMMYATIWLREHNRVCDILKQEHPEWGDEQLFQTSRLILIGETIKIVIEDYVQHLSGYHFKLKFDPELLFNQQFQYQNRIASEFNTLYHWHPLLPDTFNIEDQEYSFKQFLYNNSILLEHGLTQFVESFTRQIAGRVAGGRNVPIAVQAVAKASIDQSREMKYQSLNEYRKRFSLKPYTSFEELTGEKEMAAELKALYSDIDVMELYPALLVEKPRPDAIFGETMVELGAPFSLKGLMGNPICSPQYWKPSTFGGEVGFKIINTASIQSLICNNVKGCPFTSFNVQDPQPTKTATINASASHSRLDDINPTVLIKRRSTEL

[1] = Whole Blood Assay for Thromboxane B2 Activity; format: cell-based; settings: calcium ionophore A23187
Experimental: Whole Blood Assay for Thromboxane B2 Activity:
Thromboxane B2 (TXB2) activity was assayed using an ELISA to detect the TXB2 released. Various concentrations of compounds and standards were prepared by a set of serial dilutions (1:3) in a microtiter plate with ethanol. In U-bottom microtiter plates, 50 μl whole blood (green top heparin), 150 μl RPMI media (JRH Biosciences) and 5 μl compound solution were mixed and preincubated at 37° C. for fifteen minutes prior to the addition 4 μg of the calcium ionophore A23187. Any reaction between the compounds and the cells was stopped after ten minutes at 37° C. by centrifuging the cells at 2000 rpm for ten minutes at 4° C. and transferring 20 μl of the supernatant into 180 μl ELISA enzyme immuno assay buffer. The TXB2 formed was measured by standard ELISA technology (Cayman Chemical). To washed and pre-coated (goat anti-rabbit IgG H&L) microtiter plates, was added 40 μl enzyme immuno assay buffer, 10 μl diluted supernatants, 50 μl […] and 50 μl TXB2 antisera. After covered overnight incubation at room temperature. 200 μl Ellman reagent was added and incubated. The absorbance was read at 405 nm with a 650 nm reference.

human COX II = molecular target: T2, human COX II (Homo sapiens, UniProt P35354); test: Assay for COX II activity in vitro (PGE2 ELISA, recombinant enzyme); format: biochemical
T2 construct: A 2.0 kb fragment containing the coding region; made in house; host or cells: SF9 insect cells (baculovirus, transfer vector pVL1393)
T2 sequence (P35354 18-604): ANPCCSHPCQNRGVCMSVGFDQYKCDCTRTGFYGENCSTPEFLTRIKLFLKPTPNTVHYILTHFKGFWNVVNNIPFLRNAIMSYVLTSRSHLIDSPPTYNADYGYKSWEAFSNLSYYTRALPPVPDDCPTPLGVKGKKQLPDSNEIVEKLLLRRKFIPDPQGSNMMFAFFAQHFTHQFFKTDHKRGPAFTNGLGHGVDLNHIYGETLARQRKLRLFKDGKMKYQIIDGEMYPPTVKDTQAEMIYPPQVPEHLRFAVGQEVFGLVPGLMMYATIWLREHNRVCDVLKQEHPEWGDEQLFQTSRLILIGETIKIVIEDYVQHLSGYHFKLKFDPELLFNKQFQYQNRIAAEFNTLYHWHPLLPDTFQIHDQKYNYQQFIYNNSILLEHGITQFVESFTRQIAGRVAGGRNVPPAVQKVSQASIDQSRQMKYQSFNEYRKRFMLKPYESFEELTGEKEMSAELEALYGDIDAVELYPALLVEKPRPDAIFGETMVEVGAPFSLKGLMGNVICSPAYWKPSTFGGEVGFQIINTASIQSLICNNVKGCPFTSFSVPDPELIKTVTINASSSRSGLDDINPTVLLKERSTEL

human COX I = molecular target: T3, human COX I (Homo sapiens, UniProt P23219); test: Assay for COX I activity in vitro (PGE2 ELISA, recombinant enzyme); format: biochemical
T3 construct: A 2.0 kb fragment containing the coding region; made in house; host or cells: SF9 insect cells (baculovirus, transfer vector pVL1393)

Murine COX I = molecular target: T4, Murine COX I (Mus musculus, UniProt P22437); test: as above; format: biochemical; settings: read-out: Murine COX I ID50
T4 construct: A 2.0 kb fragment containing the coding region; made in house; host or cells: SF9 insect cells (baculovirus, transfer vector pVL1393)
T4 sequence (P22437 27-602): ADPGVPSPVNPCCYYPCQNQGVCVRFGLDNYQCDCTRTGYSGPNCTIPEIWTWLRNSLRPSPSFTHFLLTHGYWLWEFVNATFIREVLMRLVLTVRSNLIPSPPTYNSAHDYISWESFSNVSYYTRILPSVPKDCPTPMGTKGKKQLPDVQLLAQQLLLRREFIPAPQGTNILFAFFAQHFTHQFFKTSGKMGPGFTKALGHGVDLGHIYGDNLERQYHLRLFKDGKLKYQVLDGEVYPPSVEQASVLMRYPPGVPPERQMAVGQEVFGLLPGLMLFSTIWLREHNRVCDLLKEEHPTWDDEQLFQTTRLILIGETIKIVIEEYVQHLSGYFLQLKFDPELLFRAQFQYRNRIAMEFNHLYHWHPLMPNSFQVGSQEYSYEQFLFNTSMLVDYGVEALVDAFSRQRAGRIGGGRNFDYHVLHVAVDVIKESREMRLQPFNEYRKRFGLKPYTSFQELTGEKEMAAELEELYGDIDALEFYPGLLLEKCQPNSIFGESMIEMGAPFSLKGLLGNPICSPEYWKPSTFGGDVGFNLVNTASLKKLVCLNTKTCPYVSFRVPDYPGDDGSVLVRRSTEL

Murine COX II = molecular target: T5, Murine COX II (Mus musculus, UniProt Q05769); test: Assay for COX II activity in vitro (PGE2 ELISA, recombinant enzyme); format: biochemical; settings: read-out: Murine COX II ID50
T5 construct: A 2.0 kb fragment containing the coding region; made in house; host or cells: SF9 insect cells (baculovirus, transfer vector pVL1393)
T5 sequence (Q05769 18-604): T1 sequence (Q05769 18-604)

[2] = Gen. Pharmac., 24, 105 (1993); cited from earlier work
[3] = Gen. Pharmac., 24, 105 (1993); cited from earlier work; remark: listed apart in the source

T3 sequence (P23219 24-599): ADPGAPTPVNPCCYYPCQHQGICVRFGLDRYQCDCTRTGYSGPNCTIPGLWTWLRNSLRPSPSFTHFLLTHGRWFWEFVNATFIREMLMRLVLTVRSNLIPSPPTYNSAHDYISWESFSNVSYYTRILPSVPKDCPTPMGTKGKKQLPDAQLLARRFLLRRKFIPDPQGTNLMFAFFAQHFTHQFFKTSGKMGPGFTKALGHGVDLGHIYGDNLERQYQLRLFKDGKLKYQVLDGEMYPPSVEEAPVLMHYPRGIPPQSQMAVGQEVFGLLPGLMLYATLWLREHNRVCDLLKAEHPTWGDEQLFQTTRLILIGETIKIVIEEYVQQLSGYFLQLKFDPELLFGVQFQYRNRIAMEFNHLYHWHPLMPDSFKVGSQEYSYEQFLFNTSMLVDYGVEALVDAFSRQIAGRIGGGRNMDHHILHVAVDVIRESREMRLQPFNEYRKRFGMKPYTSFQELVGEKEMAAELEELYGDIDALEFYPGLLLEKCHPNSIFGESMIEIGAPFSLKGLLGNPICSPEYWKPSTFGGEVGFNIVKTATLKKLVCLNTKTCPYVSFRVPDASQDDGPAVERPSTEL

Which “selective inhibition of the COX II enzyme” value (COX II enzyme) does the source give for `COc1ccc2cc(CC(=O)O)ccc2c1` [6-methoxy-2-napthylacetic acid] here?
The value was “selectively inhibit the COX II enzyme”.

Which IC50 [1] does the source give for `CS(=O)(=O)c1ccc(-c2cscc2-c2ccc(F)cc2)cc1` [Example 1, 3-(4-Methylsulfonylphenyl)-4-(4-fluorophenyl)thiophene] here?
The IC50 was 21 µM.

What about the IC50 (human COX II) of the same compound?
Its IC50 is less than 0.1 µM.

What about the IC50 (human COX I) of the same compound?
The IC50 was greater than 100 µM.

With `CS(=O)(=O)c1ccc(-c2csc(Br)c2-c2ccc(F)cc2)cc1` [Example 2, 4(4-Methylsulfonylphenyl)-3-(4-fluorophenyl)-2-bromothiophene] as the compound, how does the IC50 [1] read?
Its IC50 is 0.4 µM.

What about the IC50 (Murine COX I) of the same compound?
The IC50 was 3.5 µM.

For `CS(=O)(=O)c1ccc(-c2c(Br)sc(Br)c2-c2ccc(F)cc2)cc1` [Example 3, 4-(4-Methylsulfonylphenyl)-3-(4-fluorophenyl)-2,5-dibromothiophene], which IC50 (Murine COX II) is on record?
The IC50 was 1.5 µM.

With `COc1ccc(-c2cscc2-c2ccc(OC)cc2)cc1` [Example 4, 3,4-Bis(4-methoxyphenyl)thiophene] as the compound, how does the IC50 (Murine COX II) read?
The IC50 was 0.8 µM.

What about the IC50 [1] of the same compound?
Its IC50 is less than 0.1 µM.

What about the IC50 (Murine COX I) of the same compound?
Its IC50 is 0.3 µM.

With `CCOC(=O)c1scc(-c2ccc(S(C)(=O)=O)cc2)c1-c1ccc(F)cc1` [Example 5, Ethyl[4-(4-methylsulfonylphenyl)-3-(4-fluorophenyl)thien-2-yl]carboxylate] as the compound, how does the IC50 (Murine COX II) read?
Its IC50 is less than 0.1 µM.

And the IC50 (Murine COX I)?
The IC50 was greater than 3 µM.

Which IC50 (Murine COX II) does the source give for `COc1ccc(-c2cscc2-c2ccc(S(C)(=O)=O)cc2)cc1` [Example 6, 3-(4-Methylsulfonylphenyl)-4-(4-methoxyphenyl)thiophene] here?
The IC50 was less than 0.1 µM.

What about the IC50 (Murine COX I) of the same compound?
The IC50 was less than 0.3 µM.

For `COc1ccc(-c2c(-c3ccc(S(C)(=O)=O)cc3)csc2Br)cc1` [Example 7, 3-(4-Methylsulfonylphenyl)-4-(4-methoxyphenyl)-5-bromothiophene], which IC50 (Murine COX II) is on record?
The IC50 was less than 0.1 µM.

What about the IC50 [1] of the same compound?
The IC50 was less than 0.1 µM.

What about the IC50 (Murine COX I) of the same compound?
Its IC50 is less than 0.1 µM.

Which IC50 (Murine COX II) does the source give for `CCOC(=O)c1sc(C(=O)O)c(-c2ccc(F)cc2)c1-c1ccc(S(C)(=O)=O)cc1` [Example 8, 2-Ethoxycarbonyl-4-(4-fluorophenyl)-3-(4-methanesulfonylphenyl)-thienyl-5-carboxylic acid] here?
The IC50 was 5.5 µM.

What about the IC50 (Murine COX I) of the same compound?
Its IC50 is greater than 100 µM.

What does the source list for `CS(=O)(=O)c1ccc(-c2c(C(=O)O)sc(C(=O)O)c2-c2ccc(F)cc2)cc1` [Example 9, 4-(4-Fluorophenyl)-3-(4-methanesulfonylphenyl)thienyl-2,5-dicarboxylic acid]?
IC50 (Murine COX II): 4.7 µM; IC50 (Murine COX I): > 100 µM

Which IC50 (Murine COX II) does the source give for `CS(=O)(=O)c1ccc(-c2cscc2-c2ccccc2)cc1` [Example 10, 3-(4-Methanesulfonylphenyl)-4-phenyl-thiophene] here?
The IC50 was less than 0.1 µM.

And the IC50 [1]?
The IC50 was 7 µM.

And the IC50 (Murine COX I)?
The IC50 was greater than 10 µM.

With `Cc1ccc(-c2cscc2-c2ccc(S(C)(=O)=O)cc2)cc1` [Example 11, 3-(4-Methanesulfonylphenyl)-4-(4-methylphenyl)thiophene] as the compound, how does the IC50 (Murine COX II) read?
Its IC50 is less than 0.1 µM.

What about the IC50 [1] of the same compound?
Its IC50 is 7 µM.

And the IC50 (Murine COX I)?
The IC50 was greater than 100 µM.

For `NS(=O)(=O)c1ccc(-c2cscc2-c2ccc(F)cc2)cc1` [Example 12, 4-[4-(4-Fluorophenyl)thien-3-yl]benzenesulfonamide], which melting point is on record?
The melting point was 194 to 195 °C.

For `CS(=O)(=O)c1ccc(-c2cocc2-c2ccc(F)cc2)cc1` [Example 13, 3-(4-Fluorophenyl)-4-(methylsulfonylphenyl)furan], which IC50 (human COX II; human COX II enzyme (footnote *), read-out: COX II ID50) is on record?
The IC50 was 1.9 µM.

What about the melting point of the same compound?
Its melting point is 160 to 161 °C.

What about the IC50 (human COX I; human COX I enzyme (footnote *), read-out: COX I ID50) of the same compound?
The IC50 was greater than 100 µM.

For `CS(=O)(=O)c1ccc(-c2cscc2-c2ccc(F)nc2)cc1` [Example 14], which IC50 (Murine COX II) is on record?
The IC50 was 0.2 µM.

And the IC50 [1]?
The IC50 was 27 µM.

And the IC50 (Murine COX I)?
Its IC50 is greater than 10 µM.

And the melting point?
The melting point was 190 to 191 °C (dec.).

With `Cc1cc(F)ccc1-c1cscc1-c1ccc(S(C)(=O)=O)cc1` [Example 15, 3-(4-Methylsulfonylphenyl)-4-(2-methyl-4-fluorophenyl)thiophene] as the compound, how does the IC50 [1] read?
The IC50 was 28 µM.

And the IC50 (Murine COX I)?
Its IC50 is 8.5 µM.

And the melting point?
The melting point was 158 to 160 °C.

Which antiinflammatory activity [2] does the source give for `CS(=O)(=O)Nc1ccc([N+](=O)[O-])cc1OC1CCCCC1` [N-(2-cyclohexyloxy-4-nitrophenyl)methanesulfonamide] here?
The antiinflammatory activity was “antiinflammatory”.

What about the gastric side effects [3] of the same compound?
Its gastric side effects is “lacks gastric side effects”.

From patent US20030013744A1, “3,4-diaryl thiophenes and analogs thereof having use as anti-inflammatory agents” (G.D. Searle & Co., priority 1993, published 2003)
